Laboratory results reported in patent US9127004B2, “Nitrogen containing heterocyclic compounds” (Wockhardt Ltd., priority 2011, dated 2015).

Assays:
Test in all cases: MIC of Ceftazidime in presence of test compound, agar dilution (CLSI)
Assay type in all cases: cell-based
E. coli 7MP = conditions: compound present at 4 mcg/ml
Description: (§1) The biological activity of representative compounds according to the invention against various bacterial strains was investigated. In a typical study, overnight grown bacterial cultures were diluted appropriately and inoculated on the agar media containing doubling dilutions of the test compounds. Observation for growth or no growth was performed after 16-20 hours of incubation at 35±2° C. in ambient air. The overall procedure was performed as per Clinical and Laboratory Standards Institute (CLSI) recommendations (Clinical and Laboratory Standards Institute (CLSI), Performance Standards for Antimicrobial Susceptibility Testing, 20th Informational Supplement, M 100-S20, Volume 30, No. 1, 2010).
(§2) The antibacterial activity of representative compounds according to the invention was also investigated in combination with at least one antibacterial agent using the above study protocol and the results are given Table 3 and 4.

E. coli M50 = conditions: compound present at 4 mcg/ml
Description: as §1, §2

E. coli NCTC 13351 = conditions: compound present at 4 mcg/ml, Table 3
Description: as §1, §2

A. baumannii 13301 = conditions: A. baumannii 13301, Class D ESBL; compound present at 4 mcg/ml; Table 4
Description: as §1, §2

A. baumannii 13304 = conditions: A. baumannii 13304, Class D ESBL; compound present at 4 mcg/ml; Table 4
Description: as §1, §2

E. coli W 13351 = conditions: E. coli W 13351, Class A ESBL; compound present at 4 mcg/ml; Table 4
Description: as §1, §2

K. pneumoniae H 521 = conditions: K. pneumoniae H 521, KPC ESBL; compound present at 4 mcg/ml; Table 4
Description: as §1, §2

E. coli B 89 = conditions: E. coli B 89, Class C ESBL; compound present at 4 mcg/ml; Table 4
Description: as §1, §2

E. coli W 13352 = conditions: E. coli W 13352, Class A ESBL; compound present at 4 mcg/ml; Table 4
Description: as §1, §2

K. pneumoniae H 522 = conditions: K. pneumoniae H 522, KPC ESBL; compound present at 4 mcg/ml; Table 4
Description: as §1, §2

E. coli W 13353 = conditions: E. coli W 13353, Class A ESBL; compound present at 4 mcg/ml; Table 4
Description: as §1, §2

K. pneumoniae H 520 = conditions: K. pneumoniae H 520, KPC ESBL; compound present at 4 mcg/ml; Table 4
Description: as §1, §2

| SMILES | Activity of Ceftazidime (MIC) in presence of compound (E. coli 7MP; Table 3) | Activity of Ceftazidime (MIC) in presence of compound (E. coli M50; E. coli M50, Table 3) | Activity of Ceftazidime (MIC) in presence of compound (E. coli NCTC 13351) | other results |
| --- | --- | --- | --- | --- |
| CCc1nnc([C@H]2CC[C@@H]3CN2C(=O)N3OS(=O)(=O)[O-])o1.[Na+] (relative stereo) [Example 2, Sodium salt of trans-6-(sulphooxy)-2-(5-ethyl-[1,3,4]-oxadiazol-2-yl)-7-oxo-1,6-diazabicyclo[3.2.1]-octane] | 32 µg/mL | 16 µg/mL | 16 µg/mL | – |
| O=C1N2C[C@@H](CC[C@@H]2c2nnc(C(F)(F)F)o2)N1OS(=O)(=O)[O-].[Na+] (relative stereo) [Example 3, Sodium salt of trans-6-(sulphooxy)-2-(5-trifluoromethyl-[1,3,4]-oxadiazol-2-yl)-7-oxo-1,6-diazabicyclo[3.2.1]-octane] | 32 µg/mL | 16 µg/mL | 16 µg/mL | – |
| NC(=O)c1nnc([C@H]2CC[C@@H]3CN2C(=O)N3OS(=O)(=O)O)o1.[Na] (relative stereo) [Example 4, Sodium salt of trans-6-(sulphooxy)-2-(5-carboxamido-[1,3,4]-oxadiazol-2-yl)-7-oxo-1,6-diazabicyclo[3.2.1]-octane] | 2 µg/mL | 1 µg/mL | 0.5 µg/mL | Activity of Ceftazidime (MIC) in presence of compound (E. coli 7MP; Class C ESBL, Table 4): 2 µg/mL; Activity of Ceftazidime (MIC) in presence of compound (E. coli M50; E. coli M 50, Class C ESBL, Table 4): 1 µg/mL; Activity of Ceftazidime (MIC) in presence of compound (A. baumannii 13301): >32 µg/mL; Activity of Ceftazidime (MIC) in presence of compound (A. baumannii 13304): 8 µg/mL; Activity of Ceftazidime (MIC) in presence of compound (E. coli W 13351): 0.5 µg/mL; Activity of Ceftazidime (MIC) in presence of compound (K. pneumoniae H 521): 1 µg/mL; Activity of Ceftazidime (MIC) in presence of compound (E. coli B 89): 1 µg/mL; Activity of Ceftazidime (MIC) in presence of compound (E. coli W 13352): 1 µg/mL; Activity of Ceftazidime (MIC) in presence of compound (K. pneumoniae H 522): 1 µg/mL; Activity of Ceftazidime (MIC) in presence of compound (E. coli W 13353): 0.25 µg/mL; Activity of Ceftazidime (MIC) in presence of compound (K. pneumoniae H 520): 1 µg/mL |
| O=C1N2C[C@@H](CC[C@@H]2c2nnc(-c3ccon3)o2)N1OS(=O)(=O)[O-].[Na+] (relative stereo) [Example 5, Sodium salt of trans-6-(sulphooxy)-2-(5-(isooxazol-3-yl)-[1,3,4]-oxadiazol-2-yl)-7-oxo-1,6-diazabicyclo[3.2.1]-octane] | 16 µg/mL | 4 µg/mL | 4 µg/mL | – |
| O=C1N2C[C@@H](CC[C@@H]2c2nnc(-c3ccco3)o2)N1OS(=O)(=O)[O-].[Na+] (relative stereo) [Example 6, Sodium salt of trans-6-(sulphooxy)-2-(5-(furan-2-yl)-[1,3,4]-oxadiazol-2-yl)-7-oxo-1,6-diazabicyclo[3.2.1]-octane] | 32 µg/mL | 16 µg/mL | 32 µg/mL | – |
| O=C1N2C[C@@H](CC[C@@H]2c2nnc(-c3ccccc3)o2)N1OS(=O)(=O)O.[Na] (relative stereo) [Example 7, Sodium salt of trans-6-(sulphooxy)-2-(5-phenyl-[1,3,4]-oxadiazol-2-yl)-7-oxo-1,6-diazabicyclo[3.2.1]-octane] | 32 µg/mL | 16 µg/mL | 16 µg/mL | – |
| O=C1N2C[C@@H](CC[C@@H]2c2nnc(-c3ccccn3)o2)N1OS(=O)(=O)[O-].[Na+] (relative stereo) [Example 8, Sodium salt of trans-6-(sulphooxy)-2-(5-(pyridin-2-yl)-[1,3,4]-oxadiazol-2-yl)-7-oxo-1,6-diazabicyclo[3.2.1]-octane] | 32 µg/mL | 16 µg/mL | 16 µg/mL | – |
| NC(=O)c1cccc(-c2nnc([C@H]3CC[C@@H]4CN3C(=O)N4OS(=O)(=O)O)o2)n1.[Na] (relative stereo) [Example 9, Sodium salt of trans-6-(sulphooxy)-2-(5-(6-carboxamido-pyridin-2-yl)-[1,3,4]-oxadiazol-2-yl)-7-oxo-1,6-diazabicyclo[3.2.1]-octane] | >32 µg/mL | 8 µg/mL | 2 µg/mL | – |
| O=C1N2C[C@@H](CC[C@@H]2c2nnc(-c3cn4c(n3)COCC4)o2)N1OS(=O)(=O)O.[Na] (relative stereo) [Example 10, Sodium salt of trans-6-(sulphooxy)-2-(5-(5,6-dihydro-8H-imidazo[2,1-c][1,4]-oxazin-2-yl)-[1,3,4]-oxadiazol-2-yl)-7-oxo-1,6-diazabicyclo[3.2.1]-octane] | 32 µg/mL | 16 µg/mL | 16 µg/mL | – |
| O=C1N2C[C@@H](CC[C@@H]2c2nnc(CN3CCOCC3)o2)N1OS(=O)(=O)O.[Na] (relative stereo) [Example 11, Sodium salt of trans-6-(sulphooxy)-2-(5-(morpholino-4-methyl)-[1,3,4]-oxadiazol-2-yl)-7-oxo-1,6-diazabicyclo[3.2.1]-octane] | 32 µg/mL | 2 µg/mL | 1 µg/mL | – |
| O=C(c1nnc([C@H]2CC[C@@H]3CN2C(=O)N3OS(=O)(=O)[O-])o1)N1CCOCC1.[Na+] (relative stereo) [Example 12, Sodium salt of trans-sulfuric acid mono-[2-(5-(morpholin-4-yl-carbonyl)-[1,3,4]-oxadiazol-2-yl)-7-oxo-1,6-diazabicyclo[3.2.1]-octan-6-yl]ester] | 16 µg/mL | 8 µg/mL | 2 µg/mL | – |
